Results as given in patent publication US10597388B2, “Pyridazinone herbicides” (FMC CORPORATION, priority 2014, dated 2020).

What was measured:
Assay in all cases: Test D controlled growth environment herbicide test, pre- and postemergence
Type in all cases: in vivo
[1] = tested on: Russian thistle (Salsola kali)
Description: (§1) Seeds of plant species selected from bluegrass (annual bluegrass, Poa annua), blackgrass (Alopecurus myosuroides), Canada thistle (Cirsium arvense), canarygrass (Phalaris minor), chickweed (common chickweed, Stellaria media), geranium, cutleaf (cutleaf geranium, Geranium dissectum), galium (catchweed bedstraw, Galium aparine), bromegrass, downy (downy bromegrass, Bromus tectorum), field poppy (Papaver rhoeas), field violet (Viola arvensis), foxtail, green (green foxtail, Setaria viridis), deadnettle (henbit deadnettle, Lamium amplexicaule), ryegrass, Italian (Italian ryegrass, Lolium multiflorum), kochia (Kochia scoparia), lambsquarters (Chenopodium album), oilseed rape (Brassica napus), pigweed (Amaranthus retroflexus), chamomile (scentless chamomile, Matricaria inodora), Russian thistle (Salsola kali), speedwell (bird's-eye speedwell, Veronica persica), barley, spring (spring barley, Hordeum vulgare), wheat, spring (spring wheat, Triticum aestivum), buckwheat, wild (wild buckwheat, Polygonum convolvulus), mustard, wild (wild mustard, Sinapis arvensis), oat, wild (wild oat, Avena fatua), radish, wild (wild radish, Raphanus raphanistrum), windgrass (Apera spica-venti), barley, winter (winter barley, Hordeum vulgare), and wheat, winter (winter wheat, Triticum aestivum) were planted into a silt loam soil and treated preemergence with test chemicals formulated in a non-phytotoxic solvent mixture which included a surfactant.
(§2) At the same time, these species were planted in pots containing Redi-Earth® planting medium (Scotts Company, 14111 Scottslawn Road, Marysville, Ohio 43041) comprising spaghnum peat moss, vermiculite, wetting agent and starter nutrients and treated with postemergence applications of the test chemicals formulated in the same manner. Plants ranged in height from 2 to 18 cm (1- to 4-leaf stage). Treated plants and controls were maintained in a controlled growth environment for 14 to 21 d after which time all species were compared to controls and visually evaluated. Plant response ratings, summarized in Table D, are based on a scale of 0 to 100 where 0 is no effect and 100 is complete control. A dash (-) response means no test result.

[2] = tested on: barley, winter (winter barley, Hordeum vulgare)
Description: as §1, §2

[3] = tested on: bromegrass, downy (downy bromegrass, Bromus tectorum)
Description: as §1, §2

[4] = tested on: buckwheat, wild (wild buckwheat, Polygonum convolvulus)
Description: as §1, §2

[5] = tested on: canarygrass (Phalaris minor)
Description: as §1, §2

[6] = tested on: chickweed (common chickweed, Stellaria media)
Description: as §1, §2

[7] = tested on: field violet (Viola arvensis)
Description: as §1, §2

[8] = tested on: galium (catchweed bedstraw, Galium aparine)
Description: as §1, §2

kochia (Kochia scoparia) = tested on: kochia (Kochia scoparia)
Description: as §1, §2

[9] = tested on: oat, wild (wild oat, Avena fatua)
Description: as §1, §2

[10] = tested on: pigweed (Amaranthus retroflexus)
Description: as §1, §2

[11] = tested on: radish, wild (wild radish, Raphanus raphanistrum)
Description: as §1, §2

[12] = tested on: windgrass (Apera spica-venti)
Description: as §1, §2

[13] = Postemergence, 31 g ai/ha, scale 0 to 100 (0 no effect, 100 complete control)
[14] = Postemergence, 125 g ai/ha, visual rating on scale 0 (no effect) to 100 (complete control), 14 to 21 d
[15] = Postemergence, 250 g ai/ha, scale 0 to 100 (0 no effect, 100 complete control)
[16] = Preemergence, 62 g ai/ha, scale 0 to 100 (0 no effect, 100 complete control)
[17] = Preemergence, 125 g ai/ha, scale 0 to 100 (0 no effect, 100 complete control)
[18] = Preemergence, 250 g ai/ha, scale 0 to 100 (0 no effect, 100 complete control)
[19] = postemergence, 62 g ai/ha, scale 0 to 100, 0 no effect, 100 complete control

CC(=O)Oc1c(C)nn(C)c(=O)c1-c1c(C)sc2ccc(C)cc12 [Compound 25]
Russian Thistle plant response rating [1, 13]: 70 | Plant response rating, Russian Thistle [1, 14]: 80 | Plant response rating, Russian Thistle [1, 15]: 90 | Plant response rating (scale of 0 to 100), Russian Thistle ([1]; Preemergence, 31 g ai/ha): 10 | Plant response rating, Russian Thistle [1, 16]: 25 | Plant response rating, Russian Thistle [1, 17]: 40 | Plant response rating, Russian Thistle [1, 18]: 90 | Plant response rating, Russian Thistle [1, 19]: 75 | Plant response rating, Barley, Winter [2, 13]: 0 | Plant response rating, Barley, Winter [2, 14]: 0 | Plant response rating, Barley, Winter [2, 15]: 10 | Plant response rating (scale of 0 to 100), Barley, Winter ([2]; Preemergence, 31 g ai/ha): 0 | Plant response rating, Barley, Winter [2, 16]: 0 | Plant response rating, Barley, Winter [2, 17]: 5 | Barley, Winter plant response rating [2, 18]: 20 | Plant response rating, Barley, Winter [2, 19]: 0 | Bromegrass, Downy plant response rating [3, 13]: 5 | Plant response rating, Bromegrass, Downy [3, 14]: 50 | Plant response rating, Bromegrass, Downy [3, 15]: 65 | Plant response rating (scale of 0 to 100), Bromegrass, Downy ([3]; Preemergence, 31 g ai/ha): 40 | Plant response rating, Bromegrass, Downy [3, 16]: 65 | Plant response rating, Bromegrass, Downy [3, 17]: 80 | Plant response rating, Bromegrass, Downy [3, 18]: 85 | Plant response rating, Bromegrass, Downy [3, 19]: 25 | Buckwheat, Wild plant response rating [4, 13]: 80 | Plant response rating, Buckwheat, Wild [4, 14]: 100 | Plant response rating, Buckwheat, Wild [4, 15]: 100 | Plant response rating (scale of 0 to 100), Buckwheat, Wild ([4]; Preemergence, 31 g ai/ha): 0 | Plant response rating, Buckwheat, Wild [4, 16]: 0 | Plant response rating, Buckwheat, Wild [4, 17]: 20 | Plant response rating, Buckwheat, Wild [4, 18]: 25 | Plant response rating, Buckwheat, Wild [4, 19]: 100 | Canarygrass plant response rating [5, 13]: 70 | Plant response rating, Canarygrass [5, 14]: 80 | Plant response rating, Canarygrass [5, 15]: 85 | Plant response rating (scale of 0 to 100), Canarygrass ([5]; Preemergence, 31 g ai/ha): 80 | Plant response rating, Canarygrass [5, 16]: 80 | Plant response rating, Canarygrass [5, 17]: 95 | Plant response rating, Canarygrass [5, 18]: 100 | Plant response rating, Canarygrass [5, 19]: 80 | Chickweed plant response rating [6, 13]: 98 | Plant response rating, Chickweed [6, 14]: 100 | Plant response rating, Chickweed [6, 15]: 100 | Plant response rating (scale of 0 to 100), Chickweed ([6]; Preemergence, 31 g ai/ha): 95 | Plant response rating, Chickweed [6, 16]: 100 | Plant response rating, Chickweed [6, 17]: 100 | Plant response rating, Chickweed [6, 18]: 100 | Plant response rating, Chickweed [6, 19]: 98 | Field Violet plant response rating [7, 13]: 65 | Plant response rating, Field Violet [7, 14]: 85 | Plant response rating, Field Violet [7, 15]: 95 | Plant response rating (scale of 0 to 100), Field Violet ([7]; Preemergence, 31 g ai/ha): 90 | Plant response rating, Field Violet [7, 16]: 100 | Plant response rating, Field Violet [7, 17]: 100 | Plant response rating, Field Violet [7, 18]: 100 | Plant response rating, Field Violet [7, 19]: 75 | Galium plant response rating [8, 13]: 100 | Plant response rating, Galium [8, 14]: 100 | Plant response rating, Galium [8, 15]: 100 | Plant response rating (scale of 0 to 100), Galium ([8]; Preemergence, 31 g ai/ha): 70 | Plant response rating, Galium [8, 16]: 90 | Plant response rating, Galium [8, 17]: 95 | Plant response rating, Galium [8, 18]: 100 | Plant response rating, Galium [8, 19]: 100 | Kochia plant response rating (kochia (Kochia scoparia); [13]): 90 | Plant response rating, Kochia (kochia (Kochia scoparia); [14]): 100 | Plant response rating, Kochia (kochia (Kochia scoparia); [15]): 100 | Plant response rating (scale of 0 to 100), Kochia (kochia (Kochia scoparia); Preemergence, 31 g ai/ha): 0 | Plant response rating, Kochia (kochia (Kochia scoparia); [16]): 10 | Plant response rating, Kochia (kochia (Kochia scoparia); [17]): 40 | Plant response rating, Kochia (kochia (Kochia scoparia); [18]): 100 | Plant response rating, Kochia (kochia (Kochia scoparia); [19]): 95 | Oat, Wild plant response rating [9, 13]: 75 | Plant response rating, Oat, Wild [9, 14]: 90 | Plant response rating, Oat, Wild [9, 15]: 90 | Plant response rating (scale of 0 to 100), Oat, Wild ([9]; Preemergence, 31 g ai/ha): 85 | Plant response rating, Oat, Wild [9, 16]: 90 | Plant response rating, Oat, Wild [9, 17]: 95 | Plant response rating, Oat, Wild [9, 18]: 100 | Plant response rating, Oat, Wild [9, 19]: 80 | Pigweed plant response rating [10, 13]: 80 | Plant response rating, Pigweed [10, 14]: 95 | Plant response rating, Pigweed [10, 15]: 100 | Plant response rating (scale of 0 to 100), Pigweed ([10]; Preemergence, 31 g ai/ha): 100 | Plant response rating, Pigweed [10, 16]: 100 | Plant response rating, Pigweed [10, 17]: 100 | Plant response rating, Pigweed [10, 18]: 100 | Plant response rating, Pigweed [10, 19]: 100 | Radish, Wild plant response rating [11, 13]: 15 | Plant response rating, Radish, Wild [11, 14]: 65 | Plant response rating, Radish, Wild [11, 15]: 75 | Plant response rating (scale of 0 to 100), Radish, Wild ([11]; Preemergence, 31 g ai/ha): 0 | Plant response rating, Radish, Wild [11, 16]: 0 | Plant response rating, Radish, Wild [11, 17]: 0 | Plant response rating, Radish, Wild [11, 18]: 0 | Plant response rating, Radish, Wild [11, 19]: 35 | Windgrass plant response rating [12, 13]: 70 | Plant response rating, Windgrass [12, 14]: 85 | Plant response rating, Windgrass [12, 15]: 85 | Plant response rating (scale of 0 to 100), Windgrass ([12]; Preemergence, 31 g ai/ha): 75 | Plant response rating, Windgrass [12, 16]: 85 | Plant response rating, Windgrass [12, 17]: 100 | Plant response rating, Windgrass [12, 18]: 100 | Plant response rating, Windgrass [12, 19]: 75
